Results published in paper PMC9959130, “Effects of Side Chain and Peptide Bond Modifications on the Targeting Properties of Stabilized Minigastrin Analogs” (Pharmaceuticals, 2023).
Read-outs that look alike come from different tables or passages of the source. Where a SMILES comes first, the peptide text is derived from it. [ ]: non-standard residue; d: D form. The star is where a group is joined. DOTA = O=C(O)CN1CCN(CC(=O)O)CCN(CC(=O)*)CCN(CC(=O)O)CC1; 1Nal = N[C@@H](Cc1cccc2ccccc12)C(=O)O; NMeNle = CCCC[C@H](NC)C(=O)O

How the values were obtained:
human CCK2R [1] = target: T1, human CCK2R (Homo sapiens, UniProt P32239); test: Competitive binding assay against [125I][3-iodo-Tyr12,Leu15]gastrin-I on A431-CCK2R cells; settings: unlabeled peptide, 1 h at RT, radioligand [125I][3-iodo-Tyr12,Leu15]gastrin-I, mean ± sd of three independent experiments in triplicates
T1 construct: expressed in transfected cells; host or cells: A431 human epidermoid carcinoma cells, stably transfected (A431-CCK2R); originally provided by Dr. Luigi Aloj
T1 sequence (P32239 1-447): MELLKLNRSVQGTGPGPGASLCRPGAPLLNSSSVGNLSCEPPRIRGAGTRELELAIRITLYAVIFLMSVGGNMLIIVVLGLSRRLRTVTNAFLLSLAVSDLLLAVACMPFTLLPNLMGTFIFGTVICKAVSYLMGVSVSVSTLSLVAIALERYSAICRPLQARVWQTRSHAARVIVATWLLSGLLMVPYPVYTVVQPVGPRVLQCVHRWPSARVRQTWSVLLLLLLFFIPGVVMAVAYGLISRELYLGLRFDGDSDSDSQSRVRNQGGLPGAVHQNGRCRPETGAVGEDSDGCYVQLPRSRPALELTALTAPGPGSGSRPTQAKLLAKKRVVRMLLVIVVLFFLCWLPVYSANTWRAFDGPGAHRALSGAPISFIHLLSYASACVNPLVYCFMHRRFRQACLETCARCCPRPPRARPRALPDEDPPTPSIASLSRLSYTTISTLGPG
Text: (§1) A431 human epidermoid carcinoma cells overexpressing human CCK2R through stable transfection (A431-CCK2R) and the same cell line transfected with the empty vector (A431-mock) were used for cell assays. The cells are constantly available in our laboratory and were originally provided by Dr. Luigi Aloj. All cell culture media and reagents were obtained from Invitrogen Corporation (Lofer, Austria) or Sigma-Aldrich (Darmstadt, Germany). Dulbecco’s modified Eagle’s medium (DMEM) supplemented with 10% (v/v) fetal bovine serum and 1% of 100x penicillin−streptomycin−glutamine was used for cell culture. The cells were passaged three times per week using a 10x 2.5% trypsin-EDTA solution in a 1:2–1:3 ratio.
Receptor affinity studies of the DOTA-conjugates for the CCK2R was competitively evaluated against [^125I][3-iodo-Tyr^12,Leu^15]gastrin-I. The binding assays were performed in 96-well filter plates (MultiScreenHTS-FB, Merck Group, Darmstadt, Germany) as previously described. A431-CCK2R cells (200,000–400,000/well) were incubated for 1 h at RT with the peptides (concentration range of 0.01–1000 nM) and [^125I][3-iodo-Tyr^12,Leu^15]gastrin-I (~25,000 cpm). The incubation was arrested by filtering the medium by vacuum and rinsing twice rapidly with ice-cold binding assay buffer (10 mM TRIS/139 mM NaCl, pH 7.3). The filters were removed from the plate, transferred into 4.5 mL tubes and measured in the γ-counter. Data were normalized from 0 to 100 for graphical representation of exemplary binding curves. Origin software (Microcal Origin 6.1, Northampton, MA, USA) was used to calculate the half maximal inhibitory concentration (IC50) values by nonlinear regression and expressed as mean ± sd for three independent experiments performed in triplicates. An additional cell uptake study at 2 h after incubation was performed for DOTA-[(N-Me)1Nal^8]MGS5 radiolabeled with gallium-68 and lutetium-177 (see Figure S4 of the Supplementary Materials).

human CCK2R [2] = target: T1, human CCK2R; test: Calcium mobilization assay (fluo-4 AM) on A431-CCK2R cells; assay type: cell-based; settings: normalized to 10^−6 M pentagastrin, mean ± SEM of at least three independent experiments in triplicates
Text: as §1
Analog-induced receptor activation was evaluated by a calcium mobilization assay using the calcium-sensitive dye fluo-4 AM (ThermoFisher Scientific, Montigny-Le-Bretonneux, France), as previously described. Briefly, A431-CCK2R cells were seeded (60,000/well) in flat clear bottom black 96-well plates (Corning, Bagneaux-sur-Loing, France) coated with poly-L-ornithine (100 µg/mL, 1 h, 37 °C) (Sigma Aldrich, Saint Quentin Fallavier, France). Cytosolic Ca^2+ variations were measured before and after application of 50 µL of graded concentrations of the investigated peptides in the vicinity of the cells, and the effects on Ca^2+ mobilization were measured. Data were background corrected and normalized for the amplitudes caused by the medium alone (0%, no self-effect) or 10^−6 M pentagastrin (100%, maximal Ca^2+ mobilization response). Prism 4.0 software was used to calculate the EC50 values and the results were expressed as mean ± SEM for at least three independent experiments performed in triplicates.

[3] = Distribution coefficient (LogD) in octanol/PBS; assay type: physicochemical; settings: radiolabeled peptide (111In-labeled where the label names no radiometal), shake-flask octanol/PBS, 100 pmol/mL, 15 min shaking at 1500 rpm, γ-counter, mean ± SD, n = 8
Description: The distribution coefficient (LogD) in octanol/PBS was determined by mixing 0.5 mL of the radiolabeled DOTA peptides diluted in PBS (100 pmol/mL) and 0.5 mL octanol in a 1.5 mL microcentrifuge tube (n = 8). After shaking for 15 min (MS3 Basic, IKA, Staufen, Germany) at 1500 rpm and a waiting time of 10 min to ensure appropriate separation of the two phases, 100 µL aliquots of each phase were pipetted into 4.5 mL tubes. The tubes were measured using a γ-counter (2480 Wizard2 3″, PerkinElmer Life Sciences and Analytical Instruments, formerly Wallac Oy, Turku, Finland) and the LogD value was determined using following equation: LogD=Log(cpmoctanol phase/cpmPBS phase)

[4] = Binding to serum proteins (incubation in human serum, Sephadex G-50 size exclusion chromatography); assay type: in vitro ADME; settings: 37 °C; for Binding to Serum Proteins (%): 500 pmol/mL
Description: Protein binding was determined by incubation of the radiolabeled peptides in human serum at 37 °C (500 pmol/mL, n = 2). For the time points of 1, 4, and 24 h after incubation, samples of 25 µL were subjected to Sephadex G-50 size exclusion chromatography (GE Healthcare Illustra, Little Chalfont, UK). The column and the eluate were measured using the γ-counter and the percentage of protein binding was calculated.

[5] = In vitro stability in human serum (intact radiopeptide by radio-HPLC); assay type: in vitro ADME; settings: fresh human serum, 37 °C, n = 2; for Intact Radiopeptide in Human Serum (%): 1000 pmol/mL
Description: In vitro stability studies were performed in human serum (n = 2). The radiolabeled peptides (1000 pmol/mL) were incubated at 37 °C and a sample of 100 μL was taken at 1, 4, and 24 h after incubation. After the precipitation of proteins with ACN at 1:1.5 (v/v), centrifugation (14,000 rpm, 2 min, centrifuge 5424, Eppendorf AG, Germany) and dilution with water at 1:1 (v/v), an aliquot of 100 μL of this solution was analyzed by HPLC. Radioligand breakdown was monitored and the percentage of intact radiopeptide was calculated using Chromeleon Dionex Software (Version 7.2.9.11323). Additionally, the radiolabeled peptides (1000 pmol/mL) were incubated in PBS (n = 1) at room temperature to confirm the complex stability as a control.

[6] = radiolabeled peptide (111In where no radiometal named), 24 h after incubation, Sephadex G-50, γ-counter, n = 2
[7] = radiolabeled peptide (111In where no radiometal named), 24 h after incubation

Row | Structure (SMILES) | IC50 (human CCK2R [1]) [nM] | EC50 (human CCK2R [2]) [nM] | LogD [3] | Binding to Serum Proteins (%) [4, 6] [%] | Intact Radiopeptide in Human Serum (%) [5, 7] [%] | also measured
1 | CCCC[C@@H](C(=O)N[C@@H](CC(=O)O)C(=O)N[C@@H](Cc1cccc2ccccc12)C(=O)NC)N(C)C(=O)[C@H](Cc1c[nH]c2ccccc12)NC(=O)CNC(=O)[C@H](Cc1ccc(O)cc1)NC(=O)[C@H](C)NC(=O)[C@@H](CCC(=O)O)NC(=O)CN1CCN(CC(=O)O)CCN(CC(=O)O)CCN(CC(=O)O)CC1 [DOTA-MGS5[NHCH3]] | 13.2 ± 1.5 | 41 ± 14.7 |  |  |  | 
2 | CCCC[C@@H](C(=O)N[C@@H](CC(=O)O)C(=O)N[C@@H](Cc1ccc2ccccc2c1)C(N)=O)N(C)C(=O)[C@H](Cc1c[nH]c2ccccc12)NC(=O)CNC(=O)[C@H](Cc1ccc(O)cc1)NC(=O)[C@H](C)NC(=O)[C@@H](CCC(=O)O)NC(=O)CN1CCN(CC(=O)O)CCN(CC(=O)O)CCN(CC(=O)O)CC1 [DOTA-[2Nal^8]MGS5] [listing 1 of 2 here] | 1.7 ± 0.1 | 12.8 ± 2.4 |  |  |  | 
3 | CCCC[C@@H](C(=O)N[C@@H](CC(=O)O)C(=O)N[C@@H](Cc1ccc2ccccc2c1)C(N)=O)N(C)C(=O)[C@H](Cc1c[nH]c2ccccc12)NC(=O)CNC(=O)[C@H](Cc1ccc(O)cc1)NC(=O)[C@H](C)NC(=O)[C@@H](CCC(=O)O)NC(=O)CN1CCN(CC(=O)O)CCN(CC(=O)O)CCN(CC(=O)O)CC1 [DOTA-[2Nal^8]MGS5] [listing 2 of 2 here] |  |  | −1.7 ± 0.2 | 34.6 ± 0.3 | 92.0 ± 1.2 | 
4 | CCCC[C@@H](C(=O)N[C@@H](CC(=O)O)C(=O)N(C)[C@@H](Cc1cccc2ccccc12)C(N)=O)N(C)C(=O)[C@H](Cc1c[nH]c2ccccc12)NC(=O)CNC(=O)[C@H](Cc1ccc(O)cc1)NC(=O)[C@H](C)NC(=O)[C@@H](CCC(=O)O)NC(=O)CN1CCN(CC(=O)O)CCN(CC(=O)O)CCN(CC(=O)O)CC1 [DOTA-[(N-Me)1Nal^8]MGS5] [listing 1 of 2 here] | 2.7 ± 0.3 | 63.4 ± 19.9 |  |  |  | 
5 | CCCC[C@@H](C(=O)N[C@@H](CC(=O)O)C(=O)N(C)[C@@H](Cc1cccc2ccccc12)C(N)=O)N(C)C(=O)[C@H](Cc1c[nH]c2ccccc12)NC(=O)CNC(=O)[C@H](Cc1ccc(O)cc1)NC(=O)[C@H](C)NC(=O)[C@@H](CCC(=O)O)NC(=O)CN1CCN(CC(=O)O)CCN(CC(=O)O)CCN(CC(=O)O)CC1 [DOTA-[(N-Me)1Nal^8]MGS5] [listing 2 of 2 here] |  |  | −2.4 ± 0.3 | 39.8 ± 4.2 | 99.6 ± 0.1 | 
6 | CCCC[C@@H](C(=O)N[C@@H](CC(=O)O)C(=O)N[C@@H](Cc1cccc2ccccc12)C(N)=O)N(C)C(=O)[C@H](Cc1c[nH]c2ccccc12)NC(=O)CNC(=O)[C@H](Cc1ccc(O)cc1)NC(=O)[C@H](C)NC(=O)[C@@H](CCCCN)NC(=O)CN1CCN(CC(=O)O)CCN(CC(=O)O)CCN(CC(=O)O)CC1 [DOTA-[DLys^1]MGS5] ({DOTA}-[dK]AYGW[NMeNle]D[1Nal]-NH2) [listing 1 of 2 here] | 0.9 ± 0.8 | 43.5 ± 14.1 |  |  |  | 
7 | CCCC[C@@H](C(=O)N[C@@H](CC(=O)O)C(=O)N[C@@H](Cc1cccc2ccccc12)C(N)=O)N(C)C(=O)[C@H](Cc1c[nH]c2ccccc12)NC(=O)CNC(=O)[C@H](Cc1ccc(O)cc1)NC(=O)[C@H](C)NC(=O)[C@@H](CCCCN)NC(=O)CN1CCN(CC(=O)O)CCN(CC(=O)O)CCN(CC(=O)O)CC1 [DOTA-[DLys^1]MGS5] ({DOTA}-[dK]AYGW[NMeNle]D[1Nal]-NH2) [listing 2 of 2 here] |  |  | −1.3 ± 0.1 | 27.8 ± 0.4 | 98.1 ± 1.1 | 
8 | CCCC[C@@H](C(=O)N[C@@H](CC(=O)O)C(=O)N[C@@H](Cc1ccccc1)C(N)=O)N(C)C(=O)[C@H](Cc1c[nH]c2ccccc12)NC(=O)CNC(=O)[C@H](Cc1ccc(O)cc1)NC(=O)[C@H](C)NC(=O)[C@@H](CCC(=O)O)NC(=O)CN1CCN(CC(=O)O)CCN(CC(=O)O)CCN(CC(=O)O)CC1 [DOTA-[Phe^8]MGS5] ({DOTA}-[dE]AYGW[NMeNle]DF-NH2) |  |  | −3.2 ± 0.1 | 20.2 ± 1.6 | 54.0 ± 0.8 | 
9 | CCCC[C@@H](C(=O)N[C@@H](CC(=O)O)C(=O)N[C@@H](Cc1ccccc1)C(N)=O)N(C)C(=O)[C@H](Cc1c[nH]c2ccccc12)NC(=O)CNC(=O)[C@H](Cc1ccc(O)cc1)NC(=O)[C@H](C)NC(=O)[C@@H](CCC(=O)O)NC(=O)CN1CCN(CC(=O)O)CCN(CC(=O)O)CCN(CC(=O)O)CC1 [[^111In]In-DOTA-[Phe^8]MGS5, metal not drawn] ({DOTA}-[dE]AYGW[NMeNle]DF-NH2) |  |  |  |  |  | LogD ([3]; read-out: LogD): -3.19 ± 0.06; fraction unbound at 1 h, 500 pmol/mL ([4]; human, radiolabeled peptide, 1 h after incubation, Sephadex G-50, n = 2): 0.919; fraction unbound at 4 h, 500 pmol/mL ([4]; human, radiolabeled peptide, 4 h after incubation, Sephadex G-50, n = 2): 0.882; fraction unbound at 24 h, 500 pmol/mL [4, 6]: 0.798; remaining at 1 h, 1000 pmol/mL ([5]; human, radiolabeled peptide, 1 h after incubation): 99.5 ± 0.7%; remaining at 4 h, 1000 pmol/mL ([5]; human, radiolabeled peptide, 4 h after incubation): 92.5 ± 0.7%; remaining at 24 h, 1000 pmol/mL [5, 7]: 54 ± 0.8%
